According to patent US20260060969A1, “METHODS FOR THE TREATMENT OF LYMPHOPROLIFERATIVE DISORDERS” (INSTITUT NATIONAL DE LA SANTÉ ET DE LA RECHERCHE MÉDICALE, priority 2022, published 2026):

Experiments:
PROS patients = PROS patients in poor condition; earlier work told in the background; cited from earlier work
NZBWF1/J mice = test: Alpelisib in NZBWF1/J mice, model of lymphoproliferative disorders (spleen size, splenocyte flow cytometry); assay type: in vivo, mouse; conditions: female NZBWF1/J mice aged 24 weeks, 4 weeks treatment, vs vehicle
Protocol: Inventors have first investigated the impact of PIK3CA inhibition in NZBWF1/J mice a model of lymphoproliferative disorders. They randomly assigned 30 females aged of 24 weeks to receive either vehicle (n=15) or alpelisib (n=15) during 4 weeks. At the end of the treatment period, mice were sacrificed and flow cytometry was performed in splenocytes.
(§1) FIG. 1: Alpelisib improves lymphoproliferative mouse models. A. Spleen to body weight ratio at the time of sacrifice (4 weeks following treatment either with vehicle or alpelisib) (n=5-15 mice per group). B-F. Percentage of spleen cell population determined by flow cytometry analysis in NZBWF1/J mice treated with either vehicle or alpelisib. Spleen to body weight ratio of MRL-lpr mice treated either with vehicle or alpelisib for 4 weeks (n=14 mice per group). Percentage of peripheral blood monuclear cell (PBMC), bone marrow, spleen and lymph nodes cell population determined by flow cytometry analysis in MRL-lpr mice treated with either vehicle or alpelisib for 4 weeks (n=8-9 mice per group). CD4, CD8, B220, Mac1, Gr1 are used as lineage markers.
We first investigated the impact of PIK3CA inhibition in NZBWF1/J mice a model of lymphoproliferative disorders. We randomly assigned 30 females aged of 24 weeks to receive either vehicle (n=15) or alpelisib (n=15) during 4 weeks. At the end of the treatment period, mice were sacrificed and flow cytometry was performed in splenocytes.

[1] = test system: MRL/MpJ-Faslpr/J mice (MRL-lpr); test: Alpelisib in MRL/MpJ-Faslpr/J (MRL-lpr) mice, model of lymphoproliferative disorder (spleen and lymph node size, flow cytometry); assay type: in vivo, mouse; conditions: 4 weeks
Source text: They then decided to explore the relevance of alpelisib in MRL/MpJ-Faslpr/J mice (referred here as MRL-lpr), another mouse model of lymphoproliferative disorder. These mice with homozygous Fas mutation usually develop severe lymphadenoproliferation. Female mice die at an average of 18-20 weeks old. They first randomly assigned to either vehicle or alpelisib MRL-lpr female mice at 8 weeks old, before they fully develop diseases.
as §1
FIG. 2: Alpelisib modifies mononuclear cell population in MRL-lpr mice. Flow cytometry analysis of bone marrow, spleen, lymph nodes, and PBMC in MRL-lpr mice treated either with vehicle or alpelisib for 4 weeks (n=8-9 mice per group). CD4, CD8, B220, Mac1, Gr1 are used as lineage markers.
We then decided to explore the relevance of alpelisib in MRL/MpJ-Faslpr/J mice (referred here as MRL-lpr), another mouse model of lymphoproliferative disorder. These mice with homozygous Fas mutation usually develop severe lymphadenoproliferation. Female mice die at an average of 18-20 weeks old. We first randomly assigned to either vehicle or alpelisib MRL-lpr female mice at 8 weeks old, before they fully develop diseases.

[2] = MRL-lpr mice, PBMC, lymph nodes and spleen
[3] = female MRL-lpr mice treated from 8 weeks old, at sacrifice, vs vehicle

Cc1nc(NC(=O)N2CCC[C@H]2C(N)=O)sc1-c1ccnc(C(C)(C)C(F)(F)F)c1 [alpelisib]
clinical, biological and radiological outcome (PROS patients): clinical, biological and radiological improvements | spleen size (spleen to body weight ratio, FIG. 1A) (NZBWF1/J mice; at sacrifice): significantly reduced | B cells (flow cytometry in splenocytes) (NZBWF1/J mice; spleen): significantly reduced | CD8 cells count (flow cytometry in splenocytes) (NZBWF1/J mice; spleen): corrected | B cells (flow cytometry) [1, 2]: correction | T cells (flow cytometry) [1, 2]: correction | other immune cells (flow cytometry) [1, 2]: correction | lymph node size [1, 3]: reduction | spleen size [1, 3]: reduction
